Results: EP1131089B1, “STABLE AQUEOUS INSULIN PREPARATIONS WITHOUT PHENOL AND CRESOL” (Novo Nordisk A/S, priority 1998, dated 2000)

Tests used:
[1] = system: human insulin; assay: Chemical stability at 37 °C, covalent insulin polymer determined by size exclusion chromatography; assay type: physicochemical; settings: stabiliser equimolar to insulin, 0.5 Zn2+/insulin, NaCl 15 mM, glycylglycine 7 mM, tween 20 0.01 %, pH 7.5
Description: (§1) 27.5 ml of a 21 mM insulin stock solution was made by dissolving 3.707 g zinc free human insulin in 14 ml water and adding 2888 µl of 0.1 M ZnCl2 and 7 ml water before adjusting pH to 7.5 by 0.2 M NaOH and finally adding water to 27.5 ml, calculating the specific volume of insulin as 0.7 µl/mg. The stock solution was filtrated. A preparation of 3.5 ml 15 mM insulin was then made by adding 23 µl 2.3 M stabiliser in ethanol, 49 µl 0.5 M glycylglycine and 35 µl 1 % Tween 20 and water to 3.5 ml. The solution was thereafter diluted with medium containing sodium chloride 15 mM, glycylglycine 7 mM, Tween 20 0.01 %, pH 7.5 to 12, 9, 6, 3 and 0.6 mM insulin and stored at 5 °C for visual inspection. The reference solution was made by the same way but without adding a stabiliser. The chemical stability of the insulin solutions were followed at 37 °C for two concentrations, 3 and 15 mM, by determination of covalent insulin polymer by size exclusion chromatography. The analysis of insulin polymer was performed on Waters PROTEIN PAK 125 (250 x 8 mm) with an eluent containing 2.5 M acetic acid, 4 mM L-arginine and 20 %(V/V) acetonitrile at a flow rate of 1 ml/min. and ambient temperature. Detection was performed with a tunable absorbance detector (Waters 486) at 276 nm. Injection volume were […] for 3 and 15 mM insulin solutions, respectively.
(§2) 3.26 g human insulin (0.4 equivalent Zn^2+ per insulin) was dispersed in water in 18 ml water on icebath and added 490 µl 0.5 M glycylglycine and 1628 µl sodium hydroxide (3.1 equivalent) and stirred slowly overnight at 5 °C. 613 µl 0.1 M zinc chloride (0.1 equivalent of zinc) was then added the solution, pH adjusted to 7.5 by 410 µl 1 M hydrochloric acid (0.8 equivalent of chloride) and the volume adjusted to 25 ml by water. Finally the stock solution of 21 mM insulin was filtrated. 3.57 ml of the stock solution was added 50 µl 1 % tween 20, 750 µl 0.1 M stabiliser and 630 µl water to obtain 5 ml 15 mM insulin formulation. Finally the preparation was diluted with medium containing sodium chloride, glycylglycine and detergent to obtain 12, 9, 6, and 3 mM of human insulin and stored at 5 °C for visual inspection. The chemical stability of 3 and 15 mM insulin solutions were followed at 37 °C by determination of covalent insulin polymer by size exclusion chromatography.

[2] = system: human insulin; assay: Physical stability of insulin solution with stabiliser, visual inspection for precipitation on storage at 5 °C; assay type: physicochemical; settings: 0.5 Zn2+/insulin, NaCl 15 mM, glycylglycine 7 mM, tween 20 0.01 %, pH 7.5
Description: as §1, §2

[3] = example 1, stabiliser equimolar to insulin
[4] = example 2, stabiliser equimolar to insulin

SMILES | Chemical stability at 37°C (% polymer / week) Insulin solution of 3 mM ([1]; example 1, 3 mM insulin) [% polymer / week] | Chemical stability at 37°C (% polymer / week) Insulin solution of 15 mM ([1]; example 1, 15 mM insulin) [% polymer / week] | Physical stability of solution at 4 weeks and 5°C Maximal insulin concentration at which the solution was without precipitation up to 15 mM (3, 6, 9, 12, 15mM) [2, 3] [mM] | Chemical stability at 37°C (% polymer / week) Insulin solution of 3 mM ([1]; example 2, 3 mM insulin) [% polymer / week] | Chemical stability at 37°C (% polymer / week) Insulin solution of 15 mM ([1]; example 2, 15 mM insulin) [% polymer / week] | Physical stability of solution at 4 weeks and 5°C Maximal insulin concentration at which the solution was without precipitation up to 15 mM (3, 6, 9, 12, 15mM) [2, 4] [mM]
CC1(C)C2CCC1(C)C(O)C2 (single isomer, unassigned; (+)) [(+)-borneol] | 0.47 | 0.61 | 9 |  |  | 
Nc1ncnc2nc[nH]c12 [adenine] |  |  |  | 0.59 | 0.77 | 9
CC1C(O)CC2CC1C2(C)C (single isomer, unassigned; (+)) [(+)-isopinocampheol] | 0.49 | 0.61 | 12 |  |  | 
CC1(C)[C@H]2CC[C@H](CO)[C@@H]1C2 [(-)-trans-myrtanol] | 0.64 | 0.95 | 15 |  |  | 
c1ncc2[nH]cnc2n1 [purine] |  |  |  | 0.58 | 0.71 | 15
Oc1ccccc1 [phenol] | 0.37 | 0.39 | 15 | 0.32 | 0.29 | 15
CC1C(O)CC2CC1C2(C)C (single isomer, unassigned; (-)) [(-)-isopinocampheol] | 0.53 | 0.56 | 15 |  |  | 
CC1(C)C2CCC1(C)C(O)C2 (single isomer, unassigned; (-)) [(-)-borneol] | 0.43 | 0.47 | 9 |  |  | 
CC1(C)[C@H]2CC[C@](C)(C2)[C@H]1O [(+)-fenchol] | 0.50 | 0.97 | 15 |  |  | 
